# According to US9149475B2, “Protein kinase C inhibitors and uses thereof” (Rigel Pharmaceuticals, Inc., priority 2009, dated 2015):
# Tested on: Human primary T cells
# Assay: IL-2 ELISA, human primary T cell, anti-CD3+CD28+ (whole cell assay)
# Type: cell-based
# Conditions: Homo sapiens, T-cell, 24 h, human primary T cells stimulated with anti-CD3 + anti-CD28, 24 hours
# How it was run: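 PBMC-derived T cells, pre-expanded on αCD3/αCD28 with IL-2 and then washed free of IL-2, were preincubated with compound for 1 hr at 37° C (100,000 cells/well). They were then stimulated on 1 μg/ml αCD3 plus 5 μg/ml αCD28 for 24 h, and supernatant IL-2 was measured by ELISA. The counter-assay used 0.5 ng/ml PMA plus 0.1 μM ionomycin instead.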
row,IC50,Structure (SMILES)
1,500 to 1000 nM,"CC1(C)CC(Nc2nc(Nc3cccc(-c4nnnn4CCF)c3)ncc2F)CC(C)(C)N1 [III-75, 5-fluoro-N2-(3-(1-(2-fluoroethyl)-1H-tetrazol-5-yl)phenyl)-N4-(2,2,6,6-tetramethylpiperidin-4-yl)pyrimidine-2,4-diamine]"
2,500 to 1000 nM,"CN1C(C)(C)CC(Nc2nc(Nc3cccc(-c4nnnn4CCN4CCOCC4)c3)ncc2F)CC1(C)C [III-76, 5-fluoro-N2-(3-(1-(2-morpholinoethyl)-1H-tetrazol-5-yl)phenyl)-N4-(1,2,2,6,6-pentamethylpiperidin-4-yl)pyrimidine-2,4-diamine]"
3,> 1000 nM,"CC1(C)CC(Nc2nc(Nc3cccc(-c4nnnn4CCN4CCOCC4)c3)ncc2F)CC(C)(C)N1 [III-77, 5-fluoro-N2-(3-(1-(2-morpholinoethyl)-1H-tetrazol-5-yl)phenyl)-N4-(2,2,6,6-tetramethylpiperidin-4-yl)pyrimidine-2,4-diamine]"
4,500 to 1000 nM,"CN1C(C)(C)CC(Nc2nc(Nc3cc(F)c(OC4CCN(S(C)(=O)=O)CC4)c(F)c3)ncc2F)CC1(C)C [III-78, N2-(3,5-difluoro-4-(1-(methylsulfonyl)piperidin-4-yloxy)phenyl)-5-fluoro-N4-(1,2,2,6,6-pentamethylpiperidin-4-yl)pyrimidine-2,4-diamine]"
5,500 to 1000 nM,"CN1C(C)(C)CC(Nc2nc(Nc3cc(F)c(OC4CCCN(S(C)(=O)=O)CC4)c(F)c3)ncc2F)CC1(C)C (stereo not shown) [III-79, N2-(3,5-difluoro-4-(1-(methylsulfonyl)azepan-4-yloxy)phenyl)-5-fluoro-N4-(1,2,2,6,6-pentamethylpiperidin-4-yl)pyrimidine-2,4-diamine]"
6,> 1000 nM,"CC1(C)CC(Nc2nc(Nc3cc(F)c(OC4CCCN(S(C)(=O)=O)CC4)c(F)c3)ncc2F)CC(C)(C)N1 (stereo not shown) [III-80, N2-(3,5-difluoro-4-(1-(methylsulfonyl)azepan-4-yloxy)phenyl)-5-fluoro-N4-(2,2,6,6-tetramethylpiperidin-4-yl)pyrimidine-2,4-diamine]"
7,500 to 1000 nM,"CC(=O)N1CCCC(Oc2c(F)cc(Nc3ncc(F)c(NC4CC(C)(C)N(C)C(C)(C)C4)n3)cc2F)CC1 (stereo not shown) [III-81, 1-(4-(2,6-difluoro-4-(5-fluoro-4-(1,2,2,6,6-pentamethylpiperidin-4-ylamino)pyrimidin-2-ylamino)phenoxy)azepan-1-yl)ethanone]"
8,> 1000 nM,"CC(=O)N1CCCC(Oc2c(F)cc(Nc3ncc(F)c(NC4CC(C)(C)NC(C)(C)C4)n3)cc2F)CC1 (stereo not shown) [III-82, 1-(4-(2,6-difluoro-4-(5-fluoro-4-(2,2,6,6-tetramethylpiperidin-4-ylamino)pyrimidin-2-ylamino)phenoxy)azepan-1-yl)ethanone]"
9,500 to 1000 nM,"CCNC(=O)N1CCCC(Oc2c(F)cc(Nc3ncc(F)c(NC4CC(C)(C)N(C)C(C)(C)C4)n3)cc2F)CC1 (stereo not shown) [III-83, 4-(2,6-difluoro-4-(5-fluoro-4-(1,2,2,6,6-pentamethylpiperidin-4-ylamino)pyrimidin-2-ylamino)phenoxy)-N-ethylazepane-1-carboxamide]"
10,> 1000 nM,"CC1(C)CC(Nc2nc(Nc3cc(F)c(OC4CCN(S(C)(=O)=O)CC4)c(F)c3)ncc2F)CC(C)(C)N1 [III-84, N2-(3,5-difluoro-4-(1-(methylsulfonyl)piperidin-4-yloxy)phenyl)-5-fluoro-N4-(2,2,6,6-tetramethylpiperidin-4-yl)pyrimidine-2,4-diamine]"
11,> 1000 nM,"CCNC(=O)N1CCCC(Oc2c(F)cc(Nc3ncc(F)c(NC4CC(C)(C)NC(C)(C)C4)n3)cc2F)CC1 (stereo not shown) [III-85, 4-(2,6-difluoro-4-(5-fluoro-4-(2,2,6,6-tetramethylpiperidin-4-ylamino)pyrimidin-2-ylamino)phenoxy)-N-ethylazepane-1-carboxamide]"
12,> 1000 nM,"CCNC(=O)N1CCC(Oc2ccc(Nc3ncc(F)c(NC4CC(C)(C)NC(C)(C)C4)n3)cc2OC(F)F)CC1 [III-86, 4-(2-(difluoromethoxy)-4-(5-fluoro-4-(2,2,6,6-tetramethylpiperidin-4-ylamino)pyrimidin-2-ylamino)phenoxy)-N-ethylpiperidine-1-carboxamide]"
13,250 to 500 nM,"CCNC(=O)N1CCCC(Oc2ccc(Nc3ncc(F)c(NC4CC(C)(C)N(C)C(C)(C)C4)n3)cc2OC(F)F)CC1 (stereo not shown) [III-87, 4-(2-(difluoromethoxy)-4-(5-fluoro-4-(1,2,2,6,6-pentamethylpiperidin-4-ylamino)pyrimidin-2-ylamino)phenoxy)-N-ethylazepane-1-carboxamide]"
14,> 1000 nM,"CCNC(=O)N1CCCC(Oc2ccc(Nc3ncc(F)c(NC4CC(C)(C)NC(C)(C)C4)n3)cc2OC(F)F)CC1 (stereo not shown) [III-88, 4-(2-(difluoromethoxy)-4-(5-fluoro-4-(2,2,6,6-tetramethylpiperidin-4-ylamino)pyrimidin-2-ylamino)phenoxy)-N-ethylazepane-1-carboxamide]"
15,250 to 500 nM,"CN1C(C)(C)CC(Nc2nc(Nc3ccc(OC4CCCN(S(C)(=O)=O)CC4)c(OC(F)F)c3)ncc2F)CC1(C)C (stereo not shown) [III-89, N2-(3-(difluoromethoxy)-4-(1-(methylsulfonyl)azepan-4-yloxy)phenyl)-5-fluoro-N4-(1,2,2,6,6-pentamethylpiperidin-4-yl)pyrimidine-2,4-diamine]"

# The next lines start with the compound.
row,Structure (SMILES),IC50
1,"CC1(C)CC(Nc2nc(Nc3cc(F)c(OC4CCN(CCO)CC4)c(F)c3)ncc2F)CC(C)(C)N1 [III-59, 2-(4-(2,6-difluoro-4-(5-fluoro-4-(2,2,6,6-tetramethylpiperidin-4-ylamino)pyrimidin-2-ylamino)phenoxy)piperidin-1-yl)ethanol]",> 1000 nM
2,"CN1C(C)(C)CC(Nc2nc(Nc3cc(F)c(OC4CCN(CCO)CC4)c(F)c3)ncc2F)CC1(C)C [III-60, 2-(4-(2,6-difluoro-4-(5-fluoro-4-(1,2,2,6,6-pentamethylpiperidin-4-ylamino)pyrimidin-2-ylamino)phenoxy)piperidin-1-yl)ethanol]",250 to 500 nM
3,"CC(C)Nc1cc(Nc2ncc(F)c(NC3CC(C)(C)NC(C)(C)C3)n2)ccc1OC(C)C [III-61, 5-fluoro-N2-(4-isopropoxy-3-(isopropylamino)phenyl)-N4-(2,2,6,6-tetramethylpiperidin-4-yl)pyrimidine-2,4-diamine]",> 1000 nM
4,"CC(C)Nc1cc(Nc2ncc(F)c(NC3CC(C)(C)N(C)C(C)(C)C3)n2)ccc1OC(C)C [III-62, 5-fluoro-N2-(4-isopropoxy-3-(isopropylamino)phenyl)-N4-(1,2,2,6,6-pentamethylpiperidin-4-yl)pyrimidine-2,4-diamine]",> 1000 nM
5,"Cc1ccc(Nc2ncc(F)c(NC3CC(C)(C)NC(C)(C)C3)n2)cc1-c1nnnn1C [III-63, 5-fluoro-N2-(4-methyl-3-(1-methyl-1H-tetrazol-5-yl)phenyl)-N4-(2,2,6,6-tetramethylpiperidin-4-yl)pyrimidine-2,4-diamine]",250 to 500 nM
6,"Cc1ccc(Nc2ncc(F)c(NC3CC(C)(C)N(C)C(C)(C)C3)n2)cc1-c1nnnn1C [III-64, 5-fluoro-N2-(4-methyl-3-(1-methyl-1H-tetrazol-5-yl)phenyl)-N4-(1,2,2,6,6-pentamethylpiperidin-4-yl)pyrimidine-2,4-diamine]",< 250 nM
7,"CC(C)Oc1ccc(Nc2ncc(F)c(NC3CC(C)(C)NC(C)(C)C3)n2)cc1N(C)C(C)C [III-65, 5-fluoro-N2-(4-isopropoxy-3-(isopropyl(methyl)amino)phenyl)-N4-(2,2,6,6-tetramethylpiperidin-4-yl)pyrimidine-2,4-diamine]",> 1000 nM
8,"CC(C)Oc1ccc(Nc2ncc(F)c(NC3CC(C)(C)N(C)C(C)(C)C3)n2)cc1N(C)C(C)C [III-66, 5-fluoro-N2-(4-isopropoxy-3-(isopropyl(methyl)amino)phenyl)-N4-(1,2,2,6,6-pentamethylpiperidin-4-yl)pyrimidine-2,4-diamine]",> 1000 nM
9,"CCc1nnnn1-c1cc(Nc2ncc(F)c(NC3CC(C)(C)NC(C)(C)C3)n2)ccc1OC(F)F [III-67, N2-(4-(difluoromethoxy)-3-(5-ethyl-1H-tetrazol-1-yl)phenyl)-5-fluoro-N4-(2,2,6,6-tetramethylpiperidin-4-yl)pyrimidine-2,4-diamine]",250 to 500 nM
10,"CN1C(C)(C)CC(Nc2nc(Nc3cccc(-c4nn[nH]n4)c3)ncc2F)CC1(C)C [III-68, N2-(3-(2H-tetrazol-5-yl)phenyl)-5-fluoro-N4-(1,2,2,6,6-pentamethylpiperidin-4-yl)pyrimidine-2,4-diamine]",> 1000 nM
11,"CC1(C)CC(Nc2nc(Nc3cccc(-c4nn[nH]n4)c3)ncc2F)CC(C)(C)N1 [III-69, N2-(3-(2H-tetrazol-5-yl)phenyl)-5-fluoro-N4-(2,2,6,6-tetramethylpiperidin-4-yl)pyrimidine-2,4-diamine]",> 1000 nM
12,"CC(C)n1nnnc1-c1cccc(Nc2ncc(F)c(NC3CC(C)(C)N(C)C(C)(C)C3)n2)c1 [III-70, 5-fluoro-N2-(3-(1-isopropyl-1H-tetrazol-5-yl)phenyl)-N4-(1,2,2,6,6-pentamethylpiperidin-4-yl)pyrimidine-2,4-diamine]",< 250 nM
13,"CC(C)n1nnnc1-c1cccc(Nc2ncc(F)c(NC3CC(C)(C)NC(C)(C)C3)n2)c1 [III-71, 5-fluoro-N2-(3-(1-isopropyl-1H-tetrazol-5-yl)phenyl)-N4-(2,2,6,6-tetramethylpiperidin-4-yl)pyrimidine-2,4-diamine]",500 to 1000 nM
14,"CN1C(C)(C)CC(Nc2nc(Nc3cccc(-c4nnnn4C4CC4)c3)ncc2F)CC1(C)C [III-72, N2-(3-(1-cyclopropyl-1H-tetrazol-5-yl)phenyl)-5-fluoro-N4-(1,2,2,6,6-pentamethylpiperidin-4-yl)pyrimidine-2,4-diamine]",< 250 nM
15,"CC1(C)CC(Nc2nc(Nc3cccc(-c4nnnn4C4CC4)c3)ncc2F)CC(C)(C)N1 [III-73, N2-(3-(1-cyclopropyl-1H-tetrazol-5-yl)phenyl)-5-fluoro-N4-(2,2,6,6-tetramethylpiperidin-4-yl)pyrimidine-2,4-diamine]",500 to 1000 nM
16,"CN1C(C)(C)CC(Nc2nc(Nc3cccc(-c4nnnn4CCF)c3)ncc2F)CC1(C)C [III-74, 5-fluoro-N2-(3-(1-(2-fluoroethyl)-1H-tetrazol-5-yl)phenyl)-N4-(1,2,2,6,6-pentamethylpiperidin-4-yl)pyrimidine-2,4-diamine]",250 to 500 nM
